Key:
[1] = tested on: Inflammation Gene Expression Panel of Table 1; experiment: Inflammation index of stable rheumatoid arthritis patients under three treatment regimens (FIGS. 21-23); type: in vivo, human; conditions: for inflammation index compared to normal: 10 stable rheumatoid arthritis patients per treatment group
Description: (§1) FIG. 17A further illustrates the consistency of inflammatory gene expression, illustrated here with respect to 7 loci of (of the Inflammation Gene Expression Panel of Table 1), in a population of 44 normal, undiagnosed blood donors. For each individual locus is shown the range of values lying within ±2 standard deviations of the mean expression value, which corresponds to 95% of a normally distributed population. Notwithstanding the great width of the confidence interval (95%), the measured gene expression value (ΔCT)—remarkably—still lies within 10% of the mean, regardless of the expression level involved. As described in further detail below, for a given biological condition an index can be constructed to provide a measurement of the condition. This is possible as a result of the conjunction of two circumstances: (i) there is a remarkable consistency of Gene Expression Profiles with respect to a biological condition across a population and (ii) there can be employed procedures that provide substantially reproducible measurement of constituents in a Gene Expression Panel giving rise to a Gene Expression Profile, under measurement conditions wherein specificity and efficiencies of amplification for all constituents of the panel are substantially similar and which therefore provides a measurement of a biological condition. Accordingly, a function of the expression values of representative constituent loci of FIG. 17A is here used to generate an inflammation index value, which is normalized so that a reading of 1 corresponds to constituent expression values of healthy subjects, as shown in the right-hand portion of FIG. 17A.
This subject in fact was also on a regimen of an anti-inflammation steroid (prednisone) that was being tapered; within approximately one week after the inflammation index was sampled, the subject experienced a significant flare of clinical symptoms.

[2] = tested on: Inflammation Gene Expression Panel of Table 1; experiment: Inflammation index of a single subject with inflammatory bowel disease treated with Remicade (FIG. 24); type: in vivo, human
Description: as §1
FIG. 24 illustrates use of the inflammation index for assessment of a single subject suffering from inflammatory bowel disease, for whom treatment with Remicade was initiated in three doses. […] Again, the index, besides providing a measure of biological condition, is here used to measure the effectiveness of therapy (Remicade), as well as to provide a target for therapeutic intervention in terms of both dose and schedule.

[3] = tested on: Inflammation Gene Expression Panel of Table 1; conditions: studies have shown; some subjects; cited from earlier work
IL1B = experiment: Whole blood response to E. coli filtrate alone and with polymyxin B (FIG. 34); type: cell-based, human; conditions: polymyxin B added to E. coli filtrate
Description: FIGS. 27 through 41 illustrate the use of gene expression panels in early identification and monitoring of infectious disease. These figures plot the response, in expression products of the genes indicated, in whole blood, to the administration of various infectious agents or products associated with infectious agents. In each figure, the gene expression levels are “calibrated”, as that term is defined herein, in relation to baseline expression levels determined with respect to the whole blood prior to administration of the relevant infectious agent. In this respect the figures are similar in nature to various figures of our below-referenced patent application WO 01/25473 (for example, FIG. 15 therein). The concentration change is shown ratiometrically, and the baseline level of 1 for a particular gene locus corresponds to an expression level for such locus that is the same, monitored at the relevant time after addition of the infectious agent or other stimulus, as the expression level before addition of the stimulus. Ratiometric changes in concentration are plotted on a logarithmic scale. Bars below the unity line represent decreases in concentration and bars above the unity line represent increases in concentration, the magnitude of each bar indicating the magnitude of the ratio of the change. […]
The responses were monitored at 2, 6, and 24 hours after administration. […]

[4] = tested on: IL1A, IL1B, TNF, IFNG and IL10; experiment: Acute Inflammation Index from blood of a single patient treated for optic neuritis (FIG. 2); type: in vivo, human; conditions: single patient with optic neuritis
Description: (§2) For measuring the amount of a particular RNA in a sample, we have used methods known to one of ordinary skill in the art to extract and quantify transcribed RNA from a sample with respect to a constituent of a Gene Expression Panel. (See detailed protocols below. Also see PCT application publication number WO 98/24935 herein incorporated by reference for RNA analysis protocols). Briefly, RNA is extracted from a sample such as a tissue, body fluid, or culture medium in which a population of a subject might be growing. For example, cells may be lysed and RNA eluted in a suitable solution in which to conduct a DNAse reaction. First strand synthesis may be performed using a reverse transcriptase. Gene amplification, more specifically quantitative PCR assays, can then conducted and the gene of interest size calibrated against a marker such as 18S rRNA (Hirayama et al., Blood 92, 1998: 46-52). Samples are measured in multiple duplicates, for example, 4 replicates. Relative quantitation of the mRNA is determined by the difference in threshhold cycles between the internal control and the gene of interest. In an embodiment of the invention, quantitative PCR is performed using amplification, reporting agents and instruments such as those supplied commercially by Applied Biosystems (Foster City, Calif.). […]

[5] = tested on: Inflammation Gene Expression Panel of Table 1; experiment: Inflammatory gene expression in whole blood of a human subject after a single oral dose of prednisone (FIG. 14); type: in vivo
Description: as §2

[6] = tested on: 5 genes (of the Inflammation Gene Expression Panel of Table 1); experiment: Gene expression in whole blood samples from a subject given prednisone, challenged with lipopolysaccharide (FIG. 15); type: in vivo, human; conditions: blood challenged with 0.1 ng/ml lipopolysaccharide
Description: For measuring the amount of a particular RNA in a sample, we have used methods known to one of ordinary skill in the art to extract and quantify transcribed RNA from a sample with respect to a constituent of a Gene Expression Panel. (See detailed protocols below. Also see PCT application publication number WO 98/24935 herein incorporated by reference for RNA analysis protocols). Briefly, RNA is extracted from a sample such as a tissue, body fluid, or culture medium in which a population of a subject might be growing. For example, cells may be lysed and RNA eluted in a suitable solution in which to conduct a DNAse reaction. First strand synthesis may be performed using a reverse transcriptase. Gene amplification, more specifically quantitative PCR assays, can then conducted and the gene of interest size calibrated against a marker such as 18S rRNA (Hirayama et al., Blood 92, 1998: 46-52). Samples are measured in multiple duplicates, for example, 4 replicates. Relative quantitation of the mRNA is determined by the difference in threshhold cycles between the internal control and the gene of interest. In an embodiment of the invention, quantitative PCR is performed using amplification, reporting agents and instruments such as those supplied commercially by Applied Biosystems (Foster City, Calif.). Given a defined efficiency of amplification of target transcripts, the point (e.g., cycle number) that signal from amplified target template is detectable may be directly related to the amount of specific message transcript in the measured sample. Similarly, other quantifiable signals such as fluorescence, enzyme activity, disintegrations per minute, absorbance, etc., when correlated to a known concentration of target templates (e.g., a reference standard curve) or normalized to a standard with limited variability can be used to quantify the number of target templates in an unknown sample.
Specific RNAs are amplified using message specific primers or random primers. […]

[7] = 10 stable rheumatoid arthritis patients

Molecule: CN(Cc1cnc2nc(N)nc(N)c2n1)c1ccc(C(=O)N[C@@H](CCC(=O)O)C(=O)O)cc1 [methotrexate]
- inflammation index compared to normal [1]: elevated compared to normal

Molecule: Remicade: another TNF inhibitor
- abnormally low inflammation index in two of the patients [1, 7]: suggesting an immunosuppressive response
- inflammation index compared to normal [1]: all but one of the patients being treated with Remicade have an inflammation index at or below normal
- inflammation index ([2]; 24 hours after the first treatment): returned to the normal range
- inflammation index ([2]; just prior to the second dose): elevated
- inflammation index ([2]; prior to the third dose): in the normal range
- association with infections in studies [3]: associated with serious infections in some subjects

Molecule: polymyxin B
- effect on the response of IL1B locus to E. coli filtrate (IL1B): did not affect the response

Molecule: Enbrel
- patients with inflammation index in the normal range [1, 7]: 80%
- inflammation index compared to normal [1]: comes much closer to normal

Molecule: C[C@]12C=CC(=O)C=C1CC[C@@H]1[C@@H]2C(=O)C[C@@]2(C)[C@H]1CC[C@]2(O)C(=O)CO [prednisone]
- acute inflammation index ([4]; oral prednisone at 60 mg per day tapered to 10 mg per day): goes up
- expression of inflammation-related gene loci relative to baseline sample ([5]; 2 hr post single 60 mg oral dose): decreased expression of most of inflammation-related gene loci
- expression of inflammation-related gene loci relative to baseline sample ([5]; 24 hr post single 60 mg oral dose, loci with reduced expression at 2 hours): elevated gene expression levels
- gene expression of the 5 loci in relation to t=0 ([6]; 24 hours post administration): inhibitory effect of the prednisone is no longer apparent
- loci at which gene expression is higher than at t=0 (rebound effect) ([6]; 24 hours post administration): 3 of the 5 loci
- gene expression of the 5 loci in relation to t=0 ([6]; two hours after single dose): dramatically reduced gene expression

Molecule: C[C@H]1C[C@@H]2[C@H]([C@@H](O)C[C@@]3(C)[C@H]2CC[C@]3(O)C(=O)COC(=O)CCC(=O)O)[C@@]2(C)C=CC(=O)C=C12 [solumedrol]
- acute inflammation index ([4]; treatment with IV solumedrol at 1 gram per day): falls rapidly

Source: patent publication US7957909B2, “Identification, monitoring and treatment of disease and characterization of biological condition using gene expression profiles” (Source Precision Medicine, Inc., priority 1999, dated 2011)
